Measured values published in US11549075B2, “Benzyl hemiformal-containing biodiesel mixtures” (LANXESS Deutschland GmbH, priority 2019, dated 2023).

Assays:
[1] = Solubility of benzyl hemiformal in petrodiesel without biodiesel content; type: physicochemical; details: for Solubility of benzyl hemiformal in petrodiesel 100%: undiluted BHF stirred into petrodiesel
Experimental: 1) Benzyl Hemiformal—Solubility in Petrodiesel without Biodiesel Content
While stirring, BHF was mixed with petrodiesel in 0.01% steps. The following solubilities of BHF in petrodiesel were determined: […]

[2] = Solubility of benzyl hemiformal in B7 diesel fuel (petrodiesel with 7% by volume of biodiesel); type: physicochemical; details: for Solubility of benzyl hemiformal in B7 diesel fuel: undiluted BHF
Excerpt: 2) Benzyl Hemiformal—Solubility in B7 Diesel Fuel (Petrodiesel with 7% by Volume of Biodiesel)

Solubility of benzyl hemiformal in petrodiesel 100% ([1]; 0.01 % BHF): dissolved to give clear solution
Solubility of benzyl hemiformal in petrodiesel 100% ([1]; 0.02 % BHF): dissolved to give clear solution
Solubility of benzyl hemiformal in petrodiesel 100% ([1]; 0.03 % BHF): undissolved fractions
Solubility of benzyl hemiformal in petrodiesel 100% ([1]; 0.04 % BHF): undissolved fractions
Solubility of BHF in petrodiesel (in words) ([1]; room temperature): only poorly soluble
Amount of undiluted BHF that can be incorporated into petrodiesel to give a clear solution ([1]; undiluted BHF, petrodiesel without biodiesel): approx. 200 ppm
Solubility of benzyl hemiformal in B7 diesel fuel ([2]; 0.01 % BHF): dissolved to give clear solution
Solubility of benzyl hemiformal in B7 diesel fuel ([2]; 0.02 % BHF): dissolved to give clear solution
Solubility of benzyl hemiformal in B7 diesel fuel ([2]; 0.03 % BHF): undissolved fractions
Solubility of benzyl hemiformal in B7 diesel fuel ([2]; 0.04 % BHF): undissolved fractions
Amount of undiluted BHF that can be incorporated into B7 diesel fuel to give a clear solution ([2]; B7 diesel fuel): approx. 200 ppm
Compound: OCOCc1ccccc1 [benzyl hemiformal]
